Results taken from patent US20170319669A1, “METHOD OF ENHANCING VIRAL-MEDIATED GENE DELIVERY” (Wayne State University, priority 2016, published 2017).
Peptide text beside a SMILES is read from it. * marks the point of attachment. Cbz = O=C(OCc1ccccc1)*

Columns and labels:
retinal bipolar cells = experiment: AAV-mediated transduction efficiency (mCherry expression) in retinal bipolar cells after intravitreal co-injection of rAAV2 vector with proteasome inhibitor; type: in vivo, C57BL/6J mice; conditions: for transduction efficiency in retinal bipolar cells: about one month after virus injection; for expression (fluorescence intensity) of mCherry in bipolar cells: intravitreal
Excerpt: FIG. 1A-B is a series of photographs and a graph depicting the effects of proteasomes on the AAV-mediated expression of transgene (mCherry) in retinal bipolar cells one month after virus injection. FIG. 1A: Representative images of virus transduced retinal bipolar cells. […] DOX: doxorubicin; Acla: Aclarubicin; MG: MG132. FIG. 1B. Statistical data for evaluating the fluorescence intensity of mCherry in bipolar cells one month after virus injection.
FIG. 2A-B is a series of photographs and a graph depicting the effects of DOX on the AAV-mediated expression of transgene (mCherry) in retinal bipolar cells three months after virus injection. FIG. 2A. Representative images of virus transduced retinal bipolar cells three months after virus injection. Virus vectors were co-injected with DOX at different concentrations. FIG. 2B. Statistical data for evaluating the fluorescence intensity of mCherry in bipolar cells three months after virus injection.

retinal ganglion cells = experiment: Density of retinal ganglion cells (DAPI staining) after virus injection with and without DOX; type: in vivo, C57BL/6J mice; conditions: three months after virus injection; 300 μM and 500 μM DOX
Excerpt: FIG. 4A-B is a series of photographs and a graph, depicting the effects of DOX on retinal ganglion cells. FIG. 4A. Representative images for evaluating the density of retinal ganglion cells with DAPI staining after virus transduction in bipolar cells with and without DOX at different concentrations. Animals were euthanized one and three months after virus injection. FIG. 4B. Statistical data for evaluating the density of retinal ganglion cells one and three months after virus injection with and without doxorubicin (DOX).

CC(C)C[C@@H](C=O)NC(=O)[C@H](CC(C)C)NC(=O)[C@H](CC(C)C)NC(=O)OCc1ccccc1 [MG132] (Cbz-Leu-Leu-Leu-aldehyde)
transduction efficiency in retinal bipolar cells (retinal bipolar cells; MG132 100 μM, 200 μM, 500 μM): not found to enhance the transduction efficiency

CC[C@@]1(O)C[C@H](O[C@H]2C[C@H](N(C)C)[C@H](O[C@H]3C[C@H](O)[C@H](O[C@H]4CCC(=O)[C@H](C)O4)[C@H](C)O3)[C@H](C)O2)c2c(cc3c(c2O)C(=O)c2c(O)cccc2C3=O)[C@H]1C(=O)OC [aclarubicin]
transduction efficiency in retinal bipolar cells (retinal bipolar cells; aclarubicin 50 μM, 100 μM): not found to enhance the transduction efficiency

COc1cccc2c1C(=O)c1c(O)c3c(c(O)c1C2=O)C[C@@](O)(C(=O)CO)C[C@@H]3O[C@H]1C[C@H](N)[C@H](O)[C@H](C)O1 [doxorubicin]
transduction efficiency in retinal bipolar cells (retinal bipolar cells; doxorubicin from 200 μM to 800 μM): concentration-dependent increase
optimal concentration to enhance the AAV transduction efficiency (retinal bipolar cells; intravitreal co-injection with rAAV2 vector, mice): 500 µM
expression (fluorescence intensity) of mCherry in bipolar cells (retinal bipolar cells; one month after virus injection, co-injection of DOX at concentrations ≧300 μM, mice): significantly increased
expression (fluorescence intensity) of mCherry in bipolar cells (retinal bipolar cells; three months after virus injection, co-injection of DOX at concentrations ≧200 μM, mice): significantly increased
retinal ganglion cell density vs control (retinal ganglion cells): statistically lower than that of control
